This is an account of results in patent US11324740B2, “Use of agonists of type-2 dopaminergic receptors in treatment of conditions caused by elevated vascular endothelial growth factor levels” (priority 2016, dated 2022).

Structures are written as SMILES.

Common to all, as to format: in vivo, Wistar strain rats
Holding throughout (settings): cabergoline oral 0.05 mg/kg b.w. over 14 days

Assay [1] deals with experimental model for diabetic retinopathy. Kind of assay: Blood-retinal barrier permeability (dextran method) and retinal thickness (OCT) in streptozocin model for diabetic retinopathy. Here is the method: (§1) The Effects of Administration of Cabergoline on Permeability of Blood-Retinal Barrier and on Retinal Thickness in an Experimental Model for Diabetic Retinopathy The research was conducted on an experimental model of Wistar strain rats. In order to cause diabetes, the rats were injected intraperitoneally with streptozocin at a dose of 60 mg/kg b.w. After 30 days since administration of streptozocin blood glucose level was checked and only rats with the blood glucose levels of over 250 mg % were qualified for the experiment. In the course of the experiment, the following parameters were assessed: permeability of blood-retinal barrier using the dextran method (BRB) and the thickness of the retina using optical coherence tomography (OCT). In the experiment, 4 experimental groups were compared: healthy animals without cabergoline administration, healthy animals with cabergoline administration (14 days of use), animals with diabetes without cabergoline, animals with diabetes with cabergoline (14 days of use). Cabergoline was administered to the animals in oral form at a dose of 0.05 mg/kg b.w. over 14 days.

Assay [2] relates to experimental model for central retinal vein occlusion. Description: Blood-retinal barrier permeability (dextran method) and retinal thickness (OCT) in laser model for central retinal vein occlusion. Here is the method: as §1, with “and” for “and on”, “Central Retinal Vein Occlusion.” for “Diabetic Retinopathy”, “Central retinal vein occlusion was performed using” for “In order to cause diabetes, the rats were injected intraperitoneally with streptozocin at”, “532 nm laser.” for “dose of 60 mg/kg b.w. After 30 days since administration of streptozocin blood glucose level was checked and only rats with the blood glucose levels of over 250 mg % were qualified for the experiment.”, “central retinal vein occlusion” for “diabetes”

Assay [3] concerns experimental model for choroidal neovascularization (CNV). Kind of assay: Blood-retinal barrier permeability (dextran method) and retinal thickness (OCT) in laser model for choroidal neovascularization (CNV). Here is the method: as §1, with “and” for “and on”, “Choroidal Neovascularization (CNV).” for “Diabetic Retinopathy”, “Choroidal neovascularization (CNV) was performed by photocoagulation of” for “In order to cause diabetes,”, “retina using” for “rats were injected intraperitoneally with streptozocin at”, “532 nm laser.” for “dose of 60 mg/kg b.w. After 30 days since administration of streptozocin blood glucose level was checked and only rats with the blood glucose levels of over 250 mg % were qualified for the experiment.”, “CNV” for “diabetes”

[4] abbreviates: rats with streptozocin diabetes.
The mark [5] stands for this setting: rats with central retinal vein occlusion.

Consider `C=CCN1C[C@H](C(=O)N(CCCN(C)C)C(=O)NCC)C[C@@H]2c3cccc4[nH]cc(c34)C[C@H]21` [cabergoline, Cabergoline], for which the “BRB (permeability of blood-retinal barrier, dextran method)” value was 22.4 ± 7.5 µL/g/min in assay [1] (healthy rats); 35.8 ± 10.6 µL/g/min in assay [1] (setting [4]); 25.1 ± 4.2 µL/g/min in assay [2] (healthy rats); 33.3 ± 12.9 µL/g/min in assay [2] (setting [5]); 28.5 ± 6.6 µL/g/min in assay [3] (healthy rats); 37.4 ± 15.2 µL/g/min in assay [3] (rats with CNV). Further, the “OCT (thickness of the retina)” value is on record as 281 ± 14 μm in assay [1] (healthy rats); 320 ± 35 μm in assay [1] (setting [4]); 258 ± 13 μm in assay [2] (healthy rats); 343 ± 28 μm in assay [2] (setting [5]); 221 ± 22 μm in assay [3] (healthy rats); 283 ± 17 μm in assay [3] (rats with CNV).
